Results taken from patent US12662473B2, “Inhibitors for programmed cell necrosis and preparation method therefor and use thereof” (SHANGHAI INSTITUTE OF ORGANIC CHEMISTRY, CHINESE ACADEMY OF …, priority 2019, dated 2026).
Like-named read-outs stand apart in the source and are kept apart here.

What was measured:
FADD−/− Jurkat cells = test: TNF-induced programmed cell necrosis inhibition, Cell Titer-Glo viability; format: cell-based
Description: (§1) The adopted biological assay protocol was: the programmed necroptosis effect of compounds on TNF-induced in FADD (Fas-Associated Death Domain) deficient Jurkat cells and L929 cells.
(§2) In order to verify the inhibitory effect of the compounds of the present invention on programmed cell necrosis at the cellular level, cell types closely related to the RIP1 pathway, namely FADD deficient Jurkat cells (human peripheral blood leukemia T cell line) and L929 cells, were selected. Two different stimulation methods were used: tumor necrosis factor (TNFα) used alone, or TNFα used in combination with mitochondria-derived cysteine aspartate activator (SMAC). Cells viability was calculated by detecting chemiluminescence values, and the biological activity of the compound for inhibiting programmed cell necrosis can be obtained.
(§3) Methods: FADD deficient Jurkat cells: FADD deficient Jurkat cells (human peripheral blood leukemia T cell line) were cultured in vitro. After growing to the logarithmic growth phase, the cells were collected, centrifuged at 1000 rpm for 5 min, the supernatant was discarded, and the cell concentration was adjusted to 2.5×10^5/mL. Cells were seeded into 384-well plates, 40 μl per well. 5 μL of Smac (50 nM) diluted in cell culture medium and 5 μL of each compound were added to the corresponding wells. After pretreatment at 37° C. for 1 h, 5 μL of TNFα (50 ng/mL) diluted in cell culture medium was added to each well of the stimulation group, and 5 μL of the culture medium was added to the control group. The plate was cultured in a cell incubator (37° C., 5% CO2) for 14 h, and 15 μl of Cell Titer-Glo solution was added to each well, then incubated for 30 min at room temperature, and intracellular ATP level was measured by detecting luminescence. The unstimulated DMSO control wells were taken as 100% cell viability. L929 cells: The L929 cells (mouse fibroblasts) were cultured in vitro, digested and diluted to 6.25×10^4/ml, and the cells were seeded into 384-well plates, 40 μl per well. The plate was placed in a cell incubator (37° C., 5% CO2) for 12 hours. 5 μL of Smac (500 nM) diluted in cell culture medium and 5 μL of each compound were added to the corresponding wells. After pretreatment at 37° C. for 1 h, 5 μL of TNFα (500 ng/mL) diluted in cell culture medium was added to each well of the stimulation group, and 5 μL of the culture medium was added to the control group. After the plate was cultured for 14 h in a cell incubator (37° C., 5% CO2), 15 μl of Cell Titer-Glo solution was added to each well. The plate was incubated at room temperature for 30 min, and intracellular ATP level was measured by detecting luminescence. The unstimulated DMSO control wells were taken as 100% cell viability. EC50 values of the compounds were calculated using Prism Graphpad statistical software.
FADD deficient Jurkat cells: FADD deficient Jurkat cells (human peripheral blood leukemia T cell line) were cultured in vitro. After growing to the logarithmic growth phase, the cells were collected, centrifuged at 1000 rpm for 5 min, the supernatant was discarded, and the cell concentration was adjusted to 2.5×10^5/mL. Cells were seeded into 384-well plates, 40 μl per well. 5 μL of Smac (50 nM) diluted in cell culture medium and 5 μL of each compound were added to the corresponding wells. After pretreatment at 37° C. for 1 h, 5 μL of TNFα (50 ng/mL) diluted in cell culture medium was added to each well of the stimulation group, and 5 μL of the culture medium was added to the control group. After the plate was cultured in a cell incubator (37° C., 5% CO2) for 14 h, 15 μl of Cell Titer-Glo solution was added to each well. The mixture was incubated for 30 min at room temperature, and intracellular ATP level was measured by detecting luminescence. The unstimulated DMSO control wells were taken as 100% cell viability.

L929 cells = test: as above; format: cell-based, mouse; conditions: read-out: EC50 inhibitory activity on programmed cell necrosis
Description: as §1, §2, §3
L929 cells: The L929 cells (mouse fibroblasts) were cultured in vitro, digested and diluted to 6.25×10^4/ml, and the cells were seeded into 384-well plates, 40 μl per well. The plate was placed in a cell incubator (37° C., 5% CO2) for 12 hours. 5 μL of Smac (500 nM) diluted in cell culture medium and 5 μL of each compound were added to the corresponding wells. After pretreatment at 37° C. for 1 h, 5 μL of TNFα (500 ng/mL) diluted in cell culture medium was added to each well of the stimulation group, and 5 μL of the culture medium was added to the control group. After the plate was cultured for 14 h in a cell incubator (37° C., 5% CO2), and 15 μl of Cell Titer-Glo solution was added to each well, then incubated at room temperature for 30 min, and intracellular ATP level was measured by detecting luminescence. The unstimulated DMSO control wells were taken as 100% cell viability.

[1] = Homo sapiens, Jurkat, 14 h, TNFa + SM164, read-out: EC50 inhibitory activity on programmed cell necrosis
[2] = Homo sapiens, Jurkat, TNFa, read-out: EC50 inhibitory activity on programmed cell necrosis
[3] = Mus musculus, L929, 14 h, L929 cells (mouse), TNFa + SM164
[4] = Mus musculus, L929, L929 cells (mouse), TNFa

Row | Structure (SMILES) | EC50 (FADD−/− Jurkat cells; [1]) [nM] | EC50 (FADD−/− Jurkat cells; [2]) [nM] | EC50 (L929 cells; [3]) [nM] | EC50 (L929 cells; [4]) [nM] | EC50 (FADD−/− Jurkat cells; FADD−/− Jurkat cells (human), TNFa + SM164, read-out: EC50 inhibitory activity on programmed cell necrosis) [nM] | EC50 (FADD−/− Jurkat cells; FADD−/− Jurkat cells (human), TNFa, read-out: EC50 inhibitory activity on programmed cell necrosis) [nM] | EC50 (L929 cells; L929 cells (mouse), TNFa + SM164) [nM] | EC50 (L929 cells; L929 cells (mouse), TNFa) [nM]
1 | Cc1ccc([C@@H]2CCCN2C(=O)C(C)(C)Oc2ccc(Cl)cc2)cc1 (stereo in doubt) [QY-5-21] | 696 | 93 | 208 | 59.9 | – | – | – | –
2 | CN1C(=O)NC(Cc2c[nH]c3c(Cl)cccc23)C1=O (stereo not drawn) [Compound 7-Cl-O-Nec-1, reference compound] | – | – | – | – | 337 | 76 | 924 | 155
3 | Cc1noc([C@@H]2CCCN2C(=O)C(C)(C)Oc2ccccc2)n1 [QY-2-25] | > 10000 | 6180 | > 10000 | 2670 | – | – | – | –
4 | Cc1noc([C@@H]2CCCN2C(=O)C(C)(C)Oc2ccc(F)cc2)n1 [QY-2-26] | > 10000 | 417 | 982 | 182 | – | – | – | –
5 | Cc1noc([C@@H]2CCCN2C(=O)C(C)(C)Oc2ccc(N(C)C)cc2)n1 [QY-2-27] | > 10000 | 9380 | > 10000 | > 10000 | – | – | – | –
6 | CC(C)(Oc1ccc(Cl)cc1)C(=O)N1CCC[C@H]1c1nnc(N)s1 [QY-2-34] | > 10000 | > 10000 | > 10000 | > 10000 | – | – | – | –
7 | Cc1nc([C@@H]2CCCN2C(=O)C(C)(C)Oc2ccc(Cl)cc2)sc1C [QY-2-38] | > 10000 | 1700 | > 10000 | 1550 | – | – | – | –
8 | CC(C)(Oc1ccc(Cl)cc1)C(=O)N1CCC[C@H]1c1nccs1 [QY-2-39] | > 10000 | 1060 | 8920 | 1900 | – | – | – | –
9 | Cc1csc([C@@H]2CCCN2C(=O)C(C)(C)Oc2ccc(Cl)cc2)n1 [QY-2-52] | 2240 | 464 | 2370 | 419 | – | – | – | –
10 | Cc1cc([C@@H]2CCCN2C(=O)C(C)(C)Oc2ccc(Cl)cc2)on1 [QY-2-53] | 1340 | 199 | 1170 | 172 | – | – | – | –
11 | COc1ccc(OC(C)(C)C(=O)N2CCC[C@H]2c2nc(C)no2)cc1 [QY-2-54] | > 10000 | > 10000 | > 10000 | 6190 | – | – | – | –
12 | Cc1noc([C@@H]2CCCN2C(=O)C(C)(C)Oc2ccc(C#N)cc2)n1 [QY-2-55] | 2220 | 140 | 233 | 25 | – | – | – | –
13 | Cc1noc([C@@H]2CCCN2C(=O)C(C)(C)Oc2ccc(-c3ccccc3)cc2)n1 [QY-2-56] | > 10000 | > 10000 | > 10000 | 2120 | – | – | – | –
14 | Cc1noc([C@@H]2CCCN2C(=O)C(C)(C)Oc2ccc(I)cc2)n1 [QY-2-75] | 5150 | 608 | > 10000 | 2450 | – | – | – | –
15 | Cc1noc([C@@H]2CCCN2C(=O)C(C)(C)Oc2ccc(OC(F)(F)F)cc2)n1 [QY-2-76] | 3960 | > 10000 | > 10000 | > 10000 | – | – | – | –
16 | Cc1ccc(OC(C)(C)C(=O)N2CCC[C@H]2c2nc(C)no2)cc1 [QY-2-77] | > 10000 | 7900 | > 10000 | 4260 | – | – | – | –
17 | Cc1noc([C@@H]2CCCN2C(=O)C(C)(C)Oc2ccc(Oc3ccccc3)cc2)n1 [QY-2-78] | > 10000 | 127 | > 10000 | > 10000 | – | – | – | –

Row | Structure (SMILES) | EC50 (FADD−/− Jurkat cells; [1]) [nM] | EC50 (FADD−/− Jurkat cells; [2]) [nM] | EC50 (L929 cells; [3]) [nM] | EC50 (L929 cells; [4]) [nM] | EC50 (FADD−/− Jurkat cells; FADD−/− Jurkat cells (human), TNFa + SM164, read-out: EC50 inhibitory activity on programmed cell necrosis) [nM] | EC50 (FADD−/− Jurkat cells; FADD−/− Jurkat cells (human), TNFa, read-out: EC50 inhibitory activity on programmed cell necrosis) [nM] | EC50 (L929 cells; L929 cells (mouse), TNFa + SM164) [nM] | EC50 (L929 cells; L929 cells (mouse), TNFa) [nM]
18 | Cc1noc([C@@H]2CCCN2C(=O)C(C)(C)Oc2cccc(Cl)c2)n1 [QY-2-79] | 8920 | 2030 | 1620 | 212 | – | – | – | –
19 | CC(C)(Oc1ccc(Cl)cc1)C(=O)N1CCC[C@H]1c1nc(C2CC2)no1 [QY-2-100] | > 10000 | 2240 | > 10000 | 2480 | – | – | – | –
20 | CCCCc1noc([C@@H]2CCCN2C(=O)C(C)(C)Oc2ccc(Cl)cc2)n1 [QY-2-103] | > 10000 | > 10000 | > 10000 | > 10000 | – | – | – | –
21 | CC(C)(Oc1ccc(Cl)cc1)C(=O)N1CCC[C@H]1c1nc(Cc2ccccc2)no1 [QY-2-104] | > 10000 | > 10000 | > 10000 | > 10000 | – | – | – | –
22 | Cc1noc([C@@H]2CCCN2C(=O)COc2ccc(Cl)cc2)n1 [QY-3-4] | > 10000 | > 10000 | 59100 | > 10000 | – | – | – | –
23 | Cc1conc1[C@@H]1CCCN1C(=O)C(C)(C)Oc1ccc(Cl)cc1 [QY-3-11] | 3270 | 389 | 1570 | 404 | – | – | – | –
24 | CC(C)c1noc([C@@H]2CCCN2C(=O)C(C)(C)Oc2ccc(Cl)cc2)n1 [QY-3-17] | > 10000 | 3910 | 52400 | 5380 | – | – | – | –
25 | Cc1noc([C@@H]2CCCN2C(=O)C(C)(C)Oc2ccc(Cl)c(F)c2)n1 [QY-3-26] | 1280 | 111 | 1240 | 196 | – | – | – | –
26 | Cc1noc([C@@H]2CCCN2C(=O)C(C)(C)Oc2ccc(Cl)cc2F)n1 [QY-3-27, (S)-2-(4-Chloro-2-fluorophenoxy)-2-methyl-1-(2-(3-methyl-1,2,4-oxadiazol-5-yl)pyrrolidin-1-yl)propan-1-one] | 849 | 56 | 792 | 133 | – | – | – | –
27 | Cc1noc([C@@H]2CCCN2C(=O)C(C)(C)Oc2ccc3ccccc3c2)n1 [QY-3-28] | > 10000 | 5550 | 4080 | 878 | – | – | – | –
28 | CC(C)(Oc1ccc(Cl)cc1)C(=O)N1CCCC1c1ccccc1 (stereo not drawn) [QY-3-29] | 664 | 35 | 157 | 47 | – | – | – | –
29 | Cc1noc([C@@H]2CCCN2C(=O)C2(Oc3ccc(Cl)cc3)CC2)n1 [QY-3-35] | > 10000 | 10500 | > 10000 | 160000 | – | – | – | –
30 | Cc1noc([C@@H]2CCCN2C(=O)C(C)(C)Sc2ccc(Cl)cc2)n1 [QY-3-36] | 8360 | 983 | 9400 | 2250 | – | – | – | –
31 | Cc1cccc(C2CCCN2C(=O)C(C)(C)Oc2ccc(Cl)cc2)c1 (stereo not drawn) [QY-3-39] | 5280 | 712 | 1480 | 386 | – | – | – | –
32 | Cc1noc([C@@H]2CCCN2C(=O)C2(Oc3ccc(Cl)cc3)CCCC2)n1 [QY-3-46] | 5830 | 789 | > 10000 | 2010 | – | – | – | –
33 | CCN(CC)Cc1noc([C@@H]2CCCN2C(=O)C(C)(C)Oc2ccc(Cl)cc2)n1 [QY-3-51] | > 10000 | 59200 | > 10000 | > 10000 | – | – | – | –
